The record followed here is PMC9636434, “Discovery of small molecule agonists of the Relaxin Family Peptide Receptor 2” (Communications Biology, 2022).

For one test, the target named is T1, WT RXFP2 (Homo sapiens, UniProt Q8WXD0).
T1 construct: FLAG (N); expressed in transfected cells; host or cells: HEK293T (transient)
Kind of test: HTRF cAMP assay in HEK293T cells transiently transfected with WT RXFP2. It counts as cell-based. Conditions: for Emax: HEK-293T. The protocol:
(§1) Fig. 2 6641 is an allosteric agonist of RXFP2. a HEK-RXFP2 cells co-treated with serial dilutions of INSL3 B dimer antagonist and 30 nM INSL3 or 0.28 µM 6641. HTRF cAMP dose-response inhibition curves were normalized to activity without antagonist co-treatment as 0% inhibition. b HTRF cAMP assay in HEK293T cells transiently transfected with WT or chimeric receptors. Chimera RXFP2-1 contains the extracellular domain of RXFP2 and the transmembrane domain of RXFP1, while chimera RXFP1-2 contains the extracellular domain of RXFP1 and the transmembrane domain of RXFP2. For each receptor, cAMP response induced by INSL3 and 6641 was normalized to FSK (2 µM) as 100% efficacy and DMSO vehicle as 0% efficacy. Emax and EC50 were calculated using four parameter nonlinear fit dose-response curves. Results are expressed as mean ± SEM of 3 independent experiments. Diagrams of the chimeric receptors were produced using GPCRdb.org[58], [59].
(§2) Complementary RXFP2-1 and RXFP1-2 chimeric receptors were used to further investigate the involvement of the RXFP2 extracellular and transmembrane domains on 6641 activity. RXFP2-1 has the extracellular domain of RXFP2 and transmembrane domain of RXFP1, and RXFP1-2 is its complement.
(§3) The HTRF Gs dynamic cAMP assay kit (CisBio, Bedford, MA) was used to measure intracellular cAMP accumulation in HEK293T cells (ATCC, Manassas, VA)[56]. […] The cell stock was verified mycoplasma free and authenticated by ATCC. Transient transfection was accomplished by treating cells in a 6-well plate with a mixture of 2 μg plasmid and 6 μL Lipofectamine 2000 (Invitrogen, Waltham, MA) per manufacturer’s protocol and incubating overnight. For cAMP measurement in 96-well format, HEK293T cells stably transfected with human RXFP2 (HEK-RXFP2), human RXFP1 (HEK-RXFP1), mouse Rxfp1 (HEK-Rxfp1) or transiently transfected with human RXFP1-RXFP2 chimeric receptors were seeded between 7500 and 30,000 cells per well, depending on cell line responsiveness, in serum-free DMEM medium and incubated overnight at 37 °C, 5% CO2. After 18 h, cells were treated with a titration of compound, 2 μM forskolin, or DMSO vehicle. Control wells were also treated with a titration of INSL3 (Phoenix Pharmaceuticals, Burlingame, CA) or human recombinant relaxin 2 (Peprotech, Cranbury, NJ). For the RXFP2 antagonist experiment, cells were co-treated with 0.28 μM compound or 30 nM INSL3 and a titration of the INSL3 B dimer antagonist[38],[39]. For the INSL3 allosteric modulation experiment, cells were co-treated with 0.025, 0.0025, or 0.00025 μM of compound and a titration of INSL3. Cells were incubated for 1 h at 37 °C, 5% CO2, and then kit cAMP-d2 and anti-cAMP antibody were added per manufacturer protocol. Plates were incubated for 1 h at room temperature and the signal was read on a CLARIOstar plate reader (BMG Labtech, Ortenberg, Germany) at 665 and 620 nm emission wavelengths.
Background: In TR-FRET formats the signal depends on donor and acceptor labels being close together.

The target of another test is T2, WT RXFP1 (Homo sapiens, UniProt Q9HBX9).
T2 construct: expressed in transfected cells; host or cells: HEK293T, transient transfection, pcDNA3.1/Zeo(+)
T2 sequence (Q9HBX9 1-757): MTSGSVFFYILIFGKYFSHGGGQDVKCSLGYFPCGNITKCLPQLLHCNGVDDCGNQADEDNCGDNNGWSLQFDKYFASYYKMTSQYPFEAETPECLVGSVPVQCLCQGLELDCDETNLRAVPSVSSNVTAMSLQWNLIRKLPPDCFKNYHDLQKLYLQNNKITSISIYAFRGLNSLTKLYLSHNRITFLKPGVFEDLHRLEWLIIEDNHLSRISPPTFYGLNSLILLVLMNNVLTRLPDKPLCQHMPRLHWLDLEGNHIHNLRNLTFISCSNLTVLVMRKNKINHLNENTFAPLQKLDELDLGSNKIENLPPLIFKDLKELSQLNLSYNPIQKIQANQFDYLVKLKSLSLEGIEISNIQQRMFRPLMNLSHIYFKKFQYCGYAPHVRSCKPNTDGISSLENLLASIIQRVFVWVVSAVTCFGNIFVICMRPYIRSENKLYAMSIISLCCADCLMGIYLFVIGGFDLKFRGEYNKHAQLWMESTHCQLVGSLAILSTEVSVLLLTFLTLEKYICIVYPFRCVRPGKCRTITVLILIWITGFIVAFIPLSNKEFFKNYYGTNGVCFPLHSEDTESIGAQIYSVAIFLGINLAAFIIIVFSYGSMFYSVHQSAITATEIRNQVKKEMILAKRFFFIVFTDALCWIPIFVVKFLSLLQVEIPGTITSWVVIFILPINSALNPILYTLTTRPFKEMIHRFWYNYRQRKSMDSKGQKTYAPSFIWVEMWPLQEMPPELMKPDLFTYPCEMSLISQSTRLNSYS
Kind of test: HTRF cAMP assay in HEK293T cells transiently transfected with WT RXFP1. The format is cell-based. The protocol: as §1, §2
as §3, with “Cells were incubated for 1 h at 37 °C, 5% CO2, and then kit cAMP-d2 and anti-cAMP antibody were added per manufacturer protocol.” left out

Each structure is given as a SMILES string. Values joined by “and” are separate entries in the source; they are usually repeats but may differ in a detail not shown here. Identical values can stand only once. Like-named read-outs stand apart in the source and are kept apart here.

T1 sequence (Q8WXD0 whole entry): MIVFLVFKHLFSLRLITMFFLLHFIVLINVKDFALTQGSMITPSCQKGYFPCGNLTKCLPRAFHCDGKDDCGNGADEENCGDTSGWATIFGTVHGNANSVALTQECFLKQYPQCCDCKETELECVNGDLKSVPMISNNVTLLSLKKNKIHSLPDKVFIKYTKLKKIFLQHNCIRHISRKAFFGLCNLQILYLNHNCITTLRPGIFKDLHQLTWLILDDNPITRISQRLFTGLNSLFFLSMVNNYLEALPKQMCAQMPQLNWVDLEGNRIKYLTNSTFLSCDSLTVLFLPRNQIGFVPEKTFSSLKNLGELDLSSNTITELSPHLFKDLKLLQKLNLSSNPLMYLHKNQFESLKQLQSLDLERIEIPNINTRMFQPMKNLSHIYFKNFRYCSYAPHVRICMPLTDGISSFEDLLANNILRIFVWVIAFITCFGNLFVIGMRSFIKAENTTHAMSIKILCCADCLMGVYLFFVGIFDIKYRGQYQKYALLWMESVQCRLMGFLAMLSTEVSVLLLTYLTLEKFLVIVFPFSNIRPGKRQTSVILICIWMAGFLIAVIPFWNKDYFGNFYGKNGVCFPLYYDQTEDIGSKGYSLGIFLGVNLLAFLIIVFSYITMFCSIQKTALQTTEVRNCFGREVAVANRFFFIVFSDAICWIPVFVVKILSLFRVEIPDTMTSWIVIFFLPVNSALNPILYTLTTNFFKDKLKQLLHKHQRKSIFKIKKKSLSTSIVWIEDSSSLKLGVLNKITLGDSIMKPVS

`O=C1Nc2ccc(-c3cc(C(F)(F)F)cc(C(F)(F)F)c3)cc2C(=O)N2CCN(C(=O)COc3ccc(OC(F)(F)F)cc3I)C[C@@H]12` [compound 6641]: the EC50 at WT RXFP2 (6641, individual experiments, read-out: EC50 (1)-(3)) was 4.7 nM and 28 nM and 3.17 nM; at WT RXFP2 (6641, mean (± SEM) of 3, read-out: EC50 (AVERAGE)), 12 nM. In addition, the Emax at WT RXFP2 (individual experiments, FSK (2 µM) = 100% efficacy, DMSO = 0%, read-out: Emax (1)-(3)) came out at 91.1%; at WT RXFP2 (mean (± SEM) of 3, FSK (2 µM) = 100% efficacy, read-out: Emax (AVERAGE)) it was 86.3%. Further, the “Emax (1)-(3)” value at WT RXFP2 (individual experiments, FSK (2 µM) = 100% efficacy, DMSO = 0%) is 79.79% and 88%; on WT RXFP1 (individual experiments, FSK (2 µM) = 100% efficacy) it was “Inactive”. For the same compound, on WT RXFP1 (6641, individual experiments), the “EC50 (1)-(3)” value is “Inactive”. On WT RXFP1 (6641, mean of 3), the “EC50 (AVERAGE)” value was “Inactive”. The “Emax (AVERAGE)” value at WT RXFP1 (mean of 3, FSK (2 µM) = 100% efficacy) is “Inactive”.

The term EC50 denotes the concentration that produces a half-maximal response. For orientation: Emax means the maximal effect, on the per cent scale that the assay sets.
